Measured values published in paper PMC12051620, “Molecular basis underlying the specificity of an antagonist AA92593 for mammalian melanopsins” (The Journal of Biological Chemistry, 2025).

Target: T1, human melanopsin (Homo sapiens, UniProt Q9UHM6)
T1 sequence (Q9UHM6 1-384 limits assumed): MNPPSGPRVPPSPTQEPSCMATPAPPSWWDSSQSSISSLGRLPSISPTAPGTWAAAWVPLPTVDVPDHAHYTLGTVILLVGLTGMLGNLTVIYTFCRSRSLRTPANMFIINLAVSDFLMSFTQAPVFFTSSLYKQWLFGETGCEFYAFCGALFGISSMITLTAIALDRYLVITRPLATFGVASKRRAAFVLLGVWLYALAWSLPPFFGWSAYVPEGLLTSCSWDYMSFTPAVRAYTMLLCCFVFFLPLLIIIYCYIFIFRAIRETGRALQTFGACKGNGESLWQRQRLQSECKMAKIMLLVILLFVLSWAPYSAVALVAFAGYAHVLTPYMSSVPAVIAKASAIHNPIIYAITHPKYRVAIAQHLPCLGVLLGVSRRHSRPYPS
Assay: GsX GloSensor assay with exogenous Gsα WT
Assay type: cell-based
Set-up: the C-terminal amino acid residues (94, 140, 200, 214, 296, and 308 residues); expressed in transfected cells; host or cells: COS-1
Details: 16.7 μM AA92593; COS-1 cells
From the text: Previous studies of human and mouse melanopsins reported that these melanopsins can activate not only Gq but Gs and Gi ([20], [21], [22]). Thus, we assessed the effect of AA92593 on Gsα WT or Gsα/i11 (with 11 C-terminal sequence of Giα) using the GsX GloSensor assay. In agreement with the promiscuous G protein-coupling of melanopsins, we observed light-dependent increase of GloSensor luminescence in COS-1 cells expressing Gsα or Gsα/i11 with human/mouse melanopsins (Fig. 1, G–J).
For GloSensor assay, opsins, GloSensor assay sensor (coded by pGlo-22F), and NanoBiT-tagged G proteins were transiently expressed in COS-1 cells (kindly provided from Dr David Farrens, Oregon Health and Science University) using PEI as described previously ([24], [52]). […] For GFP-fluorescence microscopy, a 35-mm cell culture dish (IWAKI) was transfected with 2 μg melanopsin-GFP plasmid and 8 μg PEI in 400 μl Opti-mem and 1.2 ml D-MEM. […]
The transfected COS-1 cells were incubated at 37 °C, 5% CO2 for 2 days, and the medium was aspirated and exchanged with 50 μl of HBSS (145 mM NaCl, 10 mM D-glucose, 5 mM KCl, 1 mM MgCl2, 1.7 mM CaCl2, 1.5 mM NaHCO3, 10 mM Hepes, pH 7.4), containing 33.3, 20, 10, 2, 0.2, 0.02, 0.002, or 0 μM AA92593, 0.5% dimetyl sulfoxide (DMSO), and 4% (vol/vol) GloSensor cAMP reagent stock solution. […] Luminescence was measured using GM-2000 or GM-3510 microplate reader (Promega). […]

For `COc1ccc(S(=O)(=O)N2CCCCC2)cc1C` [AA92593], the “effect on melanopsin-induced cAMP responses via exogenous Gsα” value was “can suppress”.
